Assay results as given in PubChem BioAssay (NCI).
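Tested at 5 concentrations; 48 h exposure; 96-well plates; endpoints linearly interpolated, else capped at highest concentration. GI50 marks 50% less growth. TGI: concentration producing complete growth inhibition.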

Tests used:
Assay in all cases: NCI tumour cell line growth inhibition, 48 h
A498 renal = tested on: A498 renal
A549 NSCLC = tested on: A549 NSCLC
CAKI-1 renal = tested on: CAKI-1 renal
CCRF-CEM leukemia = tested on: CCRF-CEM leukemia
COLO 205 colon = tested on: COLO 205 colon
DLD-1 colon = tested on: DLD-1 colon
DMS 114 small cell lung = tested on: DMS 114 small cell lung
DMS 273 small cell lung = tested on: DMS 273 small cell lung
EKVX NSCLC = tested on: EKVX NSCLC
HCC-2998 colon = tested on: HCC-2998 colon
HCT-116 colon = tested on: HCT-116 colon
HCT-15 colon = tested on: HCT-15 colon
HL-60(TB) leukemia = tested on: HL-60(TB) leukemia
HOP-18 NSCLC = tested on: HOP-18 NSCLC
HOP-62 NSCLC = tested on: HOP-62 NSCLC
HOP-92 NSCLC = tested on: HOP-92 NSCLC
HT29 colon = tested on: HT29 colon
IGROV1 ovarian = tested on: IGROV1 ovarian
K-562 leukemia = tested on: K-562 leukemia
KM12 colon = tested on: KM12 colon
KM20L2 colon = tested on: KM20L2 colon
LOX IMVI melanoma = tested on: LOX IMVI melanoma
M19-MEL melanoma = tested on: M19-MEL melanoma
MALME-3M melanoma = tested on: MALME-3M melanoma
MCF7 breast = tested on: MCF7 breast
MOLT-4 leukemia = tested on: MOLT-4 leukemia
NCI-H226 lung = tested on: NCI-H226 lung
NCI-H23 lung = tested on: NCI-H23 lung
NCI-H460 lung = tested on: NCI-H460 lung
NCI-H522 lung = tested on: NCI-H522 lung
NCI/ADR-RES ovarian = tested on: NCI/ADR-RES ovarian
OVCAR-3 ovarian = tested on: OVCAR-3 ovarian
OVCAR-4 ovarian = tested on: OVCAR-4 ovarian
OVCAR-5 ovarian = tested on: OVCAR-5 ovarian
OVCAR-8 ovarian = tested on: OVCAR-8 ovarian
P388 leukemia = tested on: P388 leukemia
P388/ADR leukemia = tested on: P388/ADR leukemia
RPMI-8226 leukemia = tested on: RPMI-8226 leukemia
RXF 393 renal = tested on: RXF 393 renal
SF-268 CNS = tested on: SF-268 CNS
SF-295 CNS = tested on: SF-295 CNS
SF-539 CNS = tested on: SF-539 CNS
SK-MEL-2 melanoma = tested on: SK-MEL-2 melanoma
SK-MEL-28 melanoma = tested on: SK-MEL-28 melanoma
SK-MEL-5 melanoma = tested on: SK-MEL-5 melanoma
SK-OV-3 ovarian = tested on: SK-OV-3 ovarian
SN12C renal = tested on: SN12C renal
SN12K1 renal = tested on: SN12K1 renal
SNB-19 CNS = tested on: SNB-19 CNS
SNB-75 CNS = tested on: SNB-75 CNS
SNB-78 CNS = tested on: SNB-78 CNS
SW-620 colon = tested on: SW-620 colon
U251 CNS = tested on: U251 CNS
UACC-257 melanoma = tested on: UACC-257 melanoma
UACC-62 melanoma = tested on: UACC-62 melanoma
UO-31 renal = tested on: UO-31 renal
XF 498 CNS = tested on: XF 498 CNS
786-0 renal = tested on: 786-0 renal
ACHN renal = tested on: ACHN renal
LXFL 529 NSCLC = tested on: LXFL 529 NSCLC
M14 melanoma = tested on: M14 melanoma
RXF-631 renal = tested on: RXF-631 renal
TK-10 renal = tested on: TK-10 renal

COc1ccc(CC(N)=O)cc1OC
TGI (A498 renal): > 1250 µM | TGI (A549 NSCLC): > 1250 µM | TGI (CAKI-1 renal): > 575 µM | TGI (CCRF-CEM leukemia): > 1250 µM | TGI (COLO 205 colon): > 1250 µM | TGI (DLD-1 colon): > 1250 µM | TGI (DMS 114 small cell lung): > 1250 µM | TGI (DMS 273 small cell lung): > 1250 µM | TGI (EKVX NSCLC): > 1250 µM | TGI (HCC-2998 colon): > 1250 µM | TGI (HCT-116 colon): > 1250 µM | TGI (HCT-15 colon): > 1250 µM | TGI (HL-60(TB) leukemia): > 1250 µM | TGI (HOP-18 NSCLC): > 1250 µM | TGI (HOP-62 NSCLC): > 1250 µM | TGI (HOP-92 NSCLC): > 1170 µM | TGI (HT29 colon): > 1250 µM | TGI (IGROV1 ovarian): > 1250 µM | TGI (K-562 leukemia): > 1250 µM | TGI (KM12 colon): > 1250 µM | TGI (KM20L2 colon): > 1250 µM | TGI (LOX IMVI melanoma): > 1250 µM | TGI (M19-MEL melanoma): > 1250 µM | TGI (MALME-3M melanoma): > 1250 µM | TGI (MCF7 breast): > 1250 µM | TGI (MOLT-4 leukemia): > 1250 µM | TGI (NCI-H226 lung): > 1250 µM | TGI (NCI-H23 lung): > 1250 µM | TGI (NCI-H460 lung): > 1250 µM | TGI (NCI-H522 lung): > 1250 µM | TGI (NCI/ADR-RES ovarian): > 1250 µM | TGI (OVCAR-3 ovarian): > 1250 µM | TGI (OVCAR-4 ovarian): > 1250 µM | TGI (OVCAR-5 ovarian): > 1250 µM | TGI (OVCAR-8 ovarian): > 125 µM | TGI (P388 leukemia): > 1250 µM | TGI (P388/ADR leukemia): > 1250 µM | TGI (RPMI-8226 leukemia): > 1250 µM | TGI (RXF 393 renal): > 1250 µM | TGI (SF-268 CNS): > 1250 µM | TGI (SF-295 CNS): > 1250 µM | TGI (SF-539 CNS): > 1250 µM | TGI (SK-MEL-2 melanoma): > 1250 µM | TGI (SK-MEL-28 melanoma): > 1250 µM | TGI (SK-MEL-5 melanoma): > 1250 µM | TGI (SK-OV-3 ovarian): > 1250 µM | TGI (SN12C renal): > 1250 µM | TGI (SN12K1 renal): > 1250 µM | TGI (SNB-19 CNS): > 1250 µM | TGI (SNB-75 CNS): > 1250 µM | TGI (SNB-78 CNS): > 1250 µM | TGI (SW-620 colon): > 1250 µM | TGI (U251 CNS): > 1250 µM | TGI (UACC-257 melanoma): > 580 µM | TGI (UACC-62 melanoma): > 1250 µM | TGI (UO-31 renal): > 1250 µM | TGI (XF 498 CNS): > 1250 µM

O=c1[nH]c(=O)n(C2CC(O)C(CO)O2)cc1OS(=O)(=O)C(F)(F)F (centres undefined)
TGI (786-0 renal): > 100 µM | TGI (A498 renal): > 100 µM | TGI (A549 NSCLC): > 100 µM | TGI (ACHN renal): > 100 µM | TGI (CAKI-1 renal): > 100 µM | TGI (CCRF-CEM leukemia): > 100 µM | TGI (COLO 205 colon): > 100 µM | TGI (DLD-1 colon): > 100 µM | TGI (DMS 114 small cell lung): > 100 µM | TGI (DMS 273 small cell lung): > 100 µM | TGI (EKVX NSCLC): > 100 µM | TGI (HCC-2998 colon): > 100 µM | TGI (HCT-116 colon): > 100 µM | TGI (HCT-15 colon): > 100 µM | TGI (HL-60(TB) leukemia): > 100 µM | TGI (HOP-18 NSCLC): > 100 µM | TGI (HOP-62 NSCLC): > 100 µM | TGI (HOP-92 NSCLC): > 100 µM | TGI (HT29 colon): > 100 µM | TGI (IGROV1 ovarian): > 100 µM | TGI (K-562 leukemia): > 100 µM | TGI (KM12 colon): > 100 µM | TGI (KM20L2 colon): > 100 µM | TGI (LOX IMVI melanoma): > 100 µM | TGI (LXFL 529 NSCLC): > 100 µM | TGI (M14 melanoma): > 100 µM | TGI (M19-MEL melanoma): > 100 µM | TGI (MALME-3M melanoma): > 100 µM | TGI (MOLT-4 leukemia): > 100 µM | TGI (NCI-H226 lung): > 100 µM | TGI (NCI-H23 lung): > 100 µM | TGI (NCI-H460 lung): > 100 µM | TGI (NCI-H522 lung): > 100 µM | TGI (OVCAR-3 ovarian): > 100 µM | TGI (OVCAR-4 ovarian): > 100 µM | TGI (OVCAR-5 ovarian): > 100 µM | TGI (OVCAR-8 ovarian): > 100 µM | TGI (RPMI-8226 leukemia): > 100 µM | TGI (RXF 393 renal): > 100 µM | TGI (RXF-631 renal): > 100 µM | TGI (SF-268 CNS): > 100 µM | TGI (SF-295 CNS): > 100 µM | TGI (SF-539 CNS): > 100 µM | TGI (SK-MEL-2 melanoma): > 100 µM | TGI (SK-MEL-28 melanoma): > 100 µM | TGI (SK-MEL-5 melanoma): > 100 µM | TGI (SK-OV-3 ovarian): > 100 µM | TGI (SN12C renal): > 100 µM | TGI (SNB-19 CNS): > 100 µM | TGI (SNB-75 CNS): > 100 µM | TGI (SW-620 colon): > 100 µM | TGI (TK-10 renal): > 100 µM | TGI (U251 CNS): > 100 µM | TGI (UACC-62 melanoma): > 100 µM | TGI (XF 498 CNS): > 100 µM

O=C(NCCCl)O/N=C/c1cccnc1
GI50 (A498 renal): 78.2 µM | TGI (A498 renal): > 100 µM | TGI (A549 NSCLC): > 100 µM | TGI (CAKI-1 renal): > 100 µM | TGI (CCRF-CEM leukemia): > 100 µM | TGI (COLO 205 colon): > 100 µM | TGI (DLD-1 colon): > 100 µM | TGI (DMS 114 small cell lung): > 100 µM | TGI (DMS 273 small cell lung): > 100 µM | TGI (EKVX NSCLC): > 100 µM | TGI (HCC-2998 colon): > 100 µM | TGI (HCT-116 colon): > 100 µM | TGI (HCT-15 colon): > 100 µM | TGI (HL-60(TB) leukemia): > 100 µM | TGI (HOP-18 NSCLC): > 100 µM | TGI (HOP-62 NSCLC): > 100 µM | TGI (HOP-92 NSCLC): > 100 µM | TGI (HT29 colon): > 100 µM | TGI (IGROV1 ovarian): > 100 µM | TGI (K-562 leukemia): > 100 µM | TGI (KM12 colon): > 100 µM | GI50 (KM20L2 colon): > 100 µM | TGI (KM20L2 colon): > 100 µM | TGI (LOX IMVI melanoma): > 100 µM | TGI (M19-MEL melanoma): > 100 µM | GI50 (MALME-3M melanoma): 89.5 µM | TGI (MALME-3M melanoma): > 100 µM | TGI (MCF7 breast): > 100 µM | TGI (MOLT-4 leukemia): > 100 µM | TGI (NCI-H226 lung): > 100 µM | TGI (NCI-H23 lung): > 100 µM | TGI (NCI-H460 lung): > 100 µM | TGI (NCI-H522 lung): > 100 µM | TGI (NCI/ADR-RES ovarian): > 100 µM | TGI (OVCAR-3 ovarian): > 100 µM | TGI (OVCAR-4 ovarian): > 100 µM | TGI (OVCAR-5 ovarian): > 100 µM | TGI (OVCAR-8 ovarian): > 100 µM | TGI (P388/ADR leukemia): > 100 µM | TGI (RPMI-8226 leukemia): > 100 µM | GI50 (RXF 393 renal): > 100 µM | TGI (RXF 393 renal): > 100 µM | TGI (SF-268 CNS): > 100 µM | TGI (SF-295 CNS): > 100 µM | TGI (SF-539 CNS): > 100 µM | TGI (SK-MEL-2 melanoma): > 100 µM | TGI (SK-MEL-28 melanoma): > 100 µM | TGI (SK-MEL-5 melanoma): > 100 µM | TGI (SK-OV-3 ovarian): > 100 µM | TGI (SN12C renal): > 100 µM | TGI (SN12K1 renal): > 100 µM | TGI (SNB-19 CNS): > 100 µM | GI50 (SNB-75 CNS): > 100 µM | TGI (SNB-75 CNS): > 100 µM | GI50 (SNB-78 CNS): > 100 µM | TGI (SNB-78 CNS): > 100 µM | TGI (SW-620 colon): > 100 µM | TGI (U251 CNS): > 100 µM | TGI (UACC-257 melanoma): > 100 µM | TGI (UACC-62 melanoma): > 100 µM | TGI (UO-31 renal): > 100 µM | TGI (XF 498 CNS): > 100 µM
